Here are results for five compounds from article PMC10218498, “Exploring BenzylethoxyAryl Urea Scaffolds for Multitarget Immunomodulation Therapies” (International Journal of Molecular Sciences, 2023).

SMILES strings stand for the structures.

In one series the target is VEGFR-2 (Homo sapiens, UniProt P35968). The experiment in a line: VEGFR-2 relative quantification by flow cytometry in HT-29. The series is classed as cell-based. Set-up: Both membrane and total PD-L1 and VEGFR-2 were relatively determined using DMSO-treated cells as a negative control; endogenous in cells; host or cells: HT-29. The following applies: 24 h; for Total VEGFR-2 (%): relative to DMSO control = 100; for inhibition at 20 µM: HT-29, HT-29, 20 µM, read-out: inhibition rate of VEGFR-2. The procedure: For these assays, cells were incubated for 24 h in the presence of the corresponding compounds at 20 µM concentration.
To study the effect of the compounds on every biological target in cancer cell lines, the compounds were used at 20 µM dose.
For the assay, 10^5 cells per well were incubated for 24 h with the corresponding dose of the tested compound in a total volume of 500 μL of their growth media.
On the one hand, to detect total PD-L1 and VEGFR-2, after the cell treatments, they were collected and fixed with 4% in PBS paraformaldehyde.
On the other hand, to detect membrane PD-L1 and VEGFR-2, the process was the same, avoiding the treatment with 0.5% in PBS TritonTM X-100 step.
In general terms: A flow cytometer gives signals particle by particle.

Another series has as its system ZAP70. Put plainly: Immunoblotting of OT-1 CTL signaling proteins: ZAP70. The following applies: OT-1, 20 μM, 24 h. Type of series: cell-based, mice. The source says: We next studied the effect of our compounds on the signaling cascade downstream of the TCR. […] However, both the expression and phosphorylation of LCK were increased in response to all compounds. The effects on ZAP70 and LAT were more complex, with opposing effects on total protein expression versus phosphorylation. Thus, all compounds modulated signaling downstream of the TCR in a manner that is likely to impact T-cell activation and activity.
CD8+ cells were obtained from the inguinal, axillary, brachial, and mesenteric lymph nodes previously collected from OT-1 mice. Lymph node cells were isolated by mashing through a […] cell strainer. Cells were resuspended in IMDM cell media at a concentration of 0.3 million cells/mL. N4 ovalbumin peptide was added at a concentration of 10 nM, and cells were incubated for 48 h at 5% CO2, 37 °C. On day 2 from recollection, cells were pelleted at 1300 rpm for 5 min and washed with PBS to remove N4 peptide. The cell pellet was resuspended in fresh IMDM media in a new flask in a 0.3 million cells/mL and supplemented with IL-2 at 20 ng/mL. After incubation for a further 48 h (day 4), cells were re-seeded in fresh IMDM media at a concentration of 0.3 million cells/mL supplemented with IL-2 at 20 ng/mL. Cells were cultured for a further 48 h prior to use on day 6 in functional assays.
To study the effect of the compounds in the signaling pathway of CTLs, the compound was incubated for 24 h at 20 μM. After this time, cells were collected and washed twice in PBS and lysed in radioimmunoprecipitation assay (RIPA) lysis buffer (50 mM tris-HCl at pH 7.4, 150 mM sodium chloride, 5 mM EGTA, 0.1% SDS, 1% NP-40, and 1% deoxycholate) supplemented with a protease and phosphatase inhibitor cocktail (mini complete ULTRA Protease tablet and phosSTOP tablet from Roche, Basel, Switzerland). Lysates were clarified by high-speed centrifugation (17,000 rpm for 15 min at 4 °C). Protein concentration was measured using a Micro BCA Protein Assay (Thermo Scientific, Waltham, MA, USA), and 10 μg to 30 μg of total protein were supplemented with 2X SDS sample buffer [tris (pH 6.8), 20% glycerol, 5% SDS, b-mercaptoethanol, and bromophenol blue) and boiled at 95 °C for 5 min. […] Bound Ab was detected by incubation with anti-rabbit and anti-mouse horseradish peroxidase secondary Ab (Cell Signaling Technology) and visualized using the Bio-Rad ChemiDoc MP Imaging System.
For orientation: In western blotting, separated proteins are transferred to a membrane and probed.

Series [1] deals with HMEC-1 microtube formation. Put plainly: Tube formation inhibition assay on Matrigel. The series is classed as cell-based, human. The following applies: HMEC-1 on Matrigel, 24 h. The procedure: The capacity to inhibit the formation of a new vasculature network formed by HMEC-1 was evaluated on compounds 8 and 14 at different concentrations.
Wells of an IBIDI μ-slide angiogenesis (IBIDI, Martinsried, Germany) were coated with 15 μL of Matrigel® (10 mg/mL, BD Biosciences) at 4 °C. After gelatinization at 37 °C for 30 min, HMEC-1 cells were seeded at 2 × 10^4 cells/well in 25 μL of culture medium on top of the Matrigel and were incubated 30 min at 37 °C while are attached. Then, compounds were added and dissolved in 25 μL of culture medium, and after 24 h of incubation at 37 °C, tube formation was evaluated.

Chain of VEGFR-2 (P35968 20-1356): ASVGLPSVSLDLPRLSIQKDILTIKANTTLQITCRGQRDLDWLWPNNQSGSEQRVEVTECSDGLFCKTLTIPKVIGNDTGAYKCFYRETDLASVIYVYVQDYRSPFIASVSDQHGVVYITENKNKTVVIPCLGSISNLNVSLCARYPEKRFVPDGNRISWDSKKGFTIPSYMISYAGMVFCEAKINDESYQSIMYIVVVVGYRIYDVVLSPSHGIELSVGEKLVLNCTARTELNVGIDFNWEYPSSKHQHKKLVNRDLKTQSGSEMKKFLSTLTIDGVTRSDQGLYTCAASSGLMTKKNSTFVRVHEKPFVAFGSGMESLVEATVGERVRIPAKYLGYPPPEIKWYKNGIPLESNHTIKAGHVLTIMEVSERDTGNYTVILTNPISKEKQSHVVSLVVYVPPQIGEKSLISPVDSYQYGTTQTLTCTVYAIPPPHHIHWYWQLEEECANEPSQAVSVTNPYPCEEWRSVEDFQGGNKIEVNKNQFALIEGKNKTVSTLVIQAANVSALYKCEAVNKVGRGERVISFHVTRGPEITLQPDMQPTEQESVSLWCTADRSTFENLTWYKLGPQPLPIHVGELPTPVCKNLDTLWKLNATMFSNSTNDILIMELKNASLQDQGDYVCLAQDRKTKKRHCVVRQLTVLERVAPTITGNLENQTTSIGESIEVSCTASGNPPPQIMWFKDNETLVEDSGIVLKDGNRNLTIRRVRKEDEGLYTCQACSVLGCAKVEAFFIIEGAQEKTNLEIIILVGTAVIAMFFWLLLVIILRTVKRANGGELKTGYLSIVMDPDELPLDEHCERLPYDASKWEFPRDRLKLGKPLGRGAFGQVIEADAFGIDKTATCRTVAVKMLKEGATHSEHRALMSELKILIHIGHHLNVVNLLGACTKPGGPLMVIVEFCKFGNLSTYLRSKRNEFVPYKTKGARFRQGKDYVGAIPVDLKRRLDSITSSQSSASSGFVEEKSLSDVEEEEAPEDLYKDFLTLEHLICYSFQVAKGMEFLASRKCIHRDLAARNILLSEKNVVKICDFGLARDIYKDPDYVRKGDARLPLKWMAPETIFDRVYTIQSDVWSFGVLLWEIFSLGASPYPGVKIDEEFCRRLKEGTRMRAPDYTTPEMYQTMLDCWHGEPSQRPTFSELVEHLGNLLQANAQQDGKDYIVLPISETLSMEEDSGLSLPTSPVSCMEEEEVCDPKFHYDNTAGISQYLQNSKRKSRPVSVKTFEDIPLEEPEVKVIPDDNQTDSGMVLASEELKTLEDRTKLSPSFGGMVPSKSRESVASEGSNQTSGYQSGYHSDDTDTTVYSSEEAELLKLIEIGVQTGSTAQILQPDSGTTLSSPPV

With `Cc1c(COc2ccc(CN3CCCCC3C(=O)O)cc2Br)cccc1-c1ccccc1` (centres unmarked) [BMS-8, reference compound], the “Total VEGFR-2 (%)” value on VEGFR-2 (HT-29, 20 µM) was determined as 86 ± 21%.

The inhibition is the drop in the measured response relative to a control, in per cent. As a reminder, the melting point is the temperature of the solid-liquid transition. Turning to `COc1ccc(COc2cccc(NC(=O)Nc3ccc(F)cc3)c2)cc1` [Compound 2], the melting point was in the range of 201 to 205 °C. Further, the “Total VEGFR-2 (%)” value at VEGFR-2 (HT-29, 20 µM) is 62 ± 15%. Besides, the inhibition at 20 µM at VEGFR-2 was around 50%. In the series with ZAP70, the “ZAP-70 protein expression (Western blot quantification)” value turned out to be 34 and the “pZAP-70 protein expression (Western blot quantification)” value (from here on “pZAP-70 protein expression”) is given as 88.

As to `COc1ccc(COc2cccc(NC(=O)Oc3ccccc3)c2)cc1` [Compound 14], the “Minimum Active Conc. (inhibition of microtube formation)” value in series [1] was 20 µM. For the same compound, the “Total VEGFR-2 (%)” value on VEGFR-2 (HT-29, 20 µM) amounted to 43 ± 12%. Further, at VEGFR-2, the inhibition at 20 µM was around 60%. In addition, in the series on ZAP70, the “ZAP-70 protein expression (Western blot quantification)” value came to 54 and the “pZAP-70 protein expression” value is listed as 108.

Turning to `COc1ccc(COc2cccc(NC(=O)Nc3ccc(Br)cc3)c2)cc1` [Compound 8], the “Minimum Active Conc. (inhibition of microtube formation)” value in series [1] came to 20 µM. Further, the “Total VEGFR-2 (%)” value on VEGFR-2 (HT-29, 20 µM) is reported as 46 ± 18%. At VEGFR-2, the inhibition at 20 µM was around 60%. Also, in the series on ZAP70, the “ZAP-70 protein expression (Western blot quantification)” value was 37 and the “pZAP-70 protein expression” value is listed as 74.

As to `COc1ccc(COc2cccc(NC(=O)Nc3ccc(OC)cc3)c2)cc1` [Compound 11], on VEGFR-2 (HT-29, 20 µM), the “inhibition rate of VEGFR-2” value is recorded as “no inhibitory effect” and the “Total VEGFR-2 (%)” value is reported as 168 ± 12%. In the series with ZAP70, the “ZAP-70 protein expression (Western blot quantification)” value was found to be 38 and the “pZAP-70 protein expression” value worked out at 77.
